Assay [1] deals with pterygium. The assay can be described thus: Topical treatment of pterygium in a patient. As to conditions: 2.5% solution, one drop four times per day, two weeks. It counts as in vivo, human. The text has this: FIG. 3. […] The treatment consists of the application of 4 drops of said solution daily, for two weeks.
The solution was applied topically to a patient suffering from unilateral pterygium, as one drop four times per day.

The subject of assay [2] is angiogenesis induced by Helicobacter pylori in the human gastric mucosa. The assay can be described thus: Angiogenesis induced by Helicobacter pylori in the human gastric mucosa (biopsies). It counts as in vivo. As to conditions: 500 mg/day oral, one week, one patient. How it is done:
FIG. 5. Helicobacter pylori • A) Hematoxylin-eosin staining of the gastric mucosa of a sample obtained from a patient infected with Helicobacter pylori before treatment. The arrows and the asterisk indicate the formation of neovessels in the mucosa protruding the gastric lumen through the lost epithelial layer. • B) Hematoxylin-eosin staining of the gastric mucosa of a sample obtained from the same patient infected with Helicobacter pylori after administering 500 mg of 2,5-dihydroxybenzenesulfonate (DHBS) daily for a week.
A biopsy of the gastric mucosa was performed in a patient chronically infected with Helicobacter pylori before the oral treatment with 2,5-dihydroxybenzene sulfonic acid (Dobesilate) (500 mg/day). After a week of treatment, another biopsy was performed in the patient. Both biopsies were evaluated using hematoxylin-eosin staining. […] Microscopically, the arrows and the asterisk indicate the formation of neovessels in the mucosa protruding the gastric lumen through the lost epithelial layer. […] This example illustrates that the use of DHBS is beneficial in the treatment of gastritis and angiogenesis caused by the infection with Helicobacter pylori.

Assay [3] concerns skeletal muscle lesions. As to the kind of experiment: Oral treatment of skeletal muscle and tendon lesions in patients (MRI, function). The format is in vivo, human. How it is done:
A and B are, respectively, front and cross sectional magnetic resonance images (MRI) showing the breaking of the left quadriceps in a patient, immediately before treatment. The presence of a large hematoma, indicated by arrows, may be observed. C and D are, respectively, front and cross sectional MRI showing the quadriceps of the same patient after treatment with 2,5-dihydroxybenzene sulfonic acid (DHBS) (500 mg/day p.o. for two weeks). […] 1 indicates the femur and 2 indicates the femoral vessels.
A is a Magnetic Resonance Image (MRI) of a patient showing the breaking of the right arm brachial biceps one day after the lesion and immediately before the treatment.
Images show the clinical manifestation of the patient referred to in FIG. 12. Before the treatment (1 day after the lesion) a large hematoma (A) and limited flexion (B) and extension (C) of the elbow are observed.
It is a Magnetic Resonance Image (MRI) of a patient showing the breaking of left leg semitendinosus muscle 9 days after the lesion and immediately before starting the treatment.
A is a Magnetic Resonance Image (MRI) of a patient showing the Achilles tendon rupture just before being treated.
The capacity of a 2,5-dihydroxybenzene derivative, the 2,5-dihydroxybenzene sulfonic acid (DHBS) to effectively treat skeletal muscle lesions is shown herein. The efficacy is evident, not only in the images of conventional diagnosis that show the recovery of the muscular damage, but also there is a clear functional recovery of the affected limb.
The first patient's left quadriceps was broken by practicing sports. […] At that moment, the patient starts a daily oral treatment with 500 mg of 2,5-dihydroxybenzene sulfonic acid (DHBS) for two weeks. […] An observation that may be applied to the other cases that support this example.
Other patient has an hematoma and muscular breaking of the brachial biceps, as shown in the magnetic resonance image (MRI) of FIG. 12A. The hematoma can be appreciated externally (FIG. 13A) and the lesion, produced by professional practice (dancing) the day before the consultation, limits the elbow flexion (FIG. 13B) and extension (FIG. 13C).

The mark [4] stands for this setting: brachial biceps breaking, 1500 mg/day p.o., 20 days, one patient.
Setting [5] is: left quadriceps breaking, 500 mg/day p.o., two weeks, one patient.

These results are taken from US9060966B2, “Use of 2,5-dihydroxybenzene derivatives for the treatment of arthritis and pain” (priority 2006, dated 2015).

“Also recorded” adds a separate entry of the source.

Regarding `O=S(=O)(O)c1cc(O)ccc1O` [DHBS, 2,5-dihydroxybenzenesulfonic acid], the pterygium result in assay [1] is “partial reversal of the pterygium”. Moreover, in assay [2], the “angiogenic activity in the gastric mucosa” value was “less angiogenic activity”; the “appearance of gastric mucosa / epithelial membrane, hematoxylin-eosin” value is on record as “apparently normal; also recorded: normal appearance”; the “symptoms of congestion and erythema of the gastric mucosa” value was “the symptoms of congestion and erythema disappear”. The “semitendinosus muscle lesion on MRI” value in assay [3] (1500 mg/day p.o., 11 days, started 9 days after lesion, one patient) is recorded as “reduced the muscular lesion; also recorded: remarkable reduction in the size of the lesion”. The “Achilles tendon lesion on MRI” value in assay [3] (1500 mg/day p.o., two months, one patient) was “marked reduction of said lesion; also recorded: remarkable reduction in the size of the lesion”. In assay [3] (setting [4]), the “elbow flexion and extension” value is “recovers the functionality of the elbow flexion and extension; also recorded: have been recovered”; the “size of the lesion and of the hematoma, brachial biceps” value was “markedly reduces the size of the lesion and of the hematoma; also recorded: remarkable reduction in the size of the lesion; also recorded: the hematoma has disappeared”. Further, in assay [3] (setting [5]), the “quadriceps hematoma on MRI” value is listed as “can no longer be observed; also recorded: the hematoma has disappeared” and the “quadriceps lesion on MRI” value is on record as “recovery of the lesion in the quadriceps”. Further, the “period to functional recovery and resolution vs conventional treatments (antiinflammatories)” value in assay [3] (quadriceps breaking, 500 mg/day p.o., two weeks) is “shorter period”. Further, in assay [3] (quadriceps breaking, 500 mg/day p.o., two weeks, one patient), the “flexion and extension capacity of the leg” value is “able to extend the left leg almost completely; also recorded: almost complete flexion (A) and extension (B) capacity”.
